Laboratory results: publication PMC4421842 (Nature Communications, 2015)
≈ marks a conversion by molar mass, not a printed value. Read-outs that look alike come from different tables or passages of the source.

Legend:
P. aeruginosa [1] = test: MIC, microdilution broth, P. aeruginosa; format: cell-based
From the text: (§1) MRSA and P. aeruginosa isolates were from Cubist Pharmaceuticals (Lexington, MA). VRE isolates were from a previously published collection. E. coli strains were obtained either from ATCC or Professor Cari Vanderpool (UIUC). A. baumannii isolates were obtained from Dr John Quale[51].
(§2) Mueller Hinton (MH) broth was used.

E. coli = test: microbe, parasite or virus in culture; format: cell-based
From the text: as §1, §2

[2] = tested on: resistant strains of ATCC 29213; test: microbe, parasite or virus in culture; format: cell-based, S. aureus; conditions: Staphylococcus aureus
A. baumannii [3] = test: MIC, microdilution broth, A. baumannii; format: cell-based; conditions: for MIC: Acinetobacter baumannii
From the text: as §1, §2

E. faecalis = test: microbe, parasite or virus in culture; format: cell-based; conditions: for MIC: Enterococcus faecalis, E. faecalis
A. baumannii [4] = tested on: A. baumannii; set-up: method as in earlier work; conditions: previously determined, cited from earlier work
P. aeruginosa [5] = tested on: P. aeruginosa; set-up: method as in earlier work; conditions: previously determined, cited from earlier work
E. faecium = test: microbe, parasite or virus in culture; format: cell-based; conditions: for MIC: Enterococcus faecium, E. faecium
VRE clinical isolates = test: MIC, VRE clinical isolates panel (summary by GyrA mutation); format: cell-based, Enterococcus; conditions: panel of VRE clinical isolates (n=22)
From the text: as §1, §2

physchem = conditions: pH 7.4
Description: Three independent replicates of each compound were performed.

[6] = tested on: FQR S. aureus (NRS3, FQR); test: MIC, microdilution broth assay, FQR MRSA NRS3; format: cell-based; conditions: NRS3; S84L GyrA and S80F ParC; three independent replicates
Ent. Spp. = test: MIC, microdilution broth, Ent. Spp. VRE clinical isolate; format: cell-based; conditions: Enterococcus, C28036, gyrA Ser83Ile, parC Ser80Ile
From the text: as §1, §2

[7] = tested on: WT S. aureus (ATCC 29213, WT); test: microbe, parasite or virus in culture; format: cell-based; conditions: WT GyrA and WT ParC, three independent replicates
MRSA clinical isolates = test: microbe, parasite or virus in culture; format: cell-based, S. aureus; conditions: for MIC: Staphylococcus aureus, MRSA, read-out: MIC
Description: as §1
Susceptibility testing was performed in triplicate, using the microdilution broth method as outlined by the Clinical and Laboratory Standards Institute[52]. Mueller Hinton (MH) broth was used.

[8] = ATCC19433, ATCC 19433, gyrA WT, parC WT
[9] = ATCC29212, ATCC 29212, gyrA WT, parC WT

O=C(O)c1cn(C2CC2)c2cc(N3CCNCC3)c(F)cc2c1=O [CIP, ciprofloxacin, reference compound]
CIP (S/R) (P. aeruginosa [1]): S | CIP (S/R) (E. coli): S | MIC ([2]; ATCC29213, high-level CIP-resistant strains, second step, S84L mutation in GyrA): 16 to 64 µg/mL (≈ 48.3 to 193 µM) | MIC ([2]; ATCC29213, low-level CIP-resistant strains, first step, WT gyrA, mutation in ParC (for example E84K or S80F)): 4 to 8 µg/mL (≈ 12.1 to 24.1 µM) | CIP (S/R) (A. baumannii [3]): S | MIC (E. faecalis; [8]): 2 µg/mL (≈ 6.04 µM) | MIC (E. faecalis; [9]): 0.5 to 2 µg/mL (≈ 1.51 to 6.04 µM) | CIP (S/I/R) (E. faecalis; strain ATCC 19433): S (sensitive (S) if it had an MIC ≤ 4 µg mL-1) | CIP (S/I/R) (E. faecalis; strain ATCC 29212): S (sensitive (S) if it had an MIC ≤ 4 µg mL-1) | CIP (S/I/R) (E. faecalis; strain C21667): R (resistant (R) with a MIC ≥ 16 µg mL-1) | CIP (S/I/R) (E. faecalis; strain C28535): R (resistant (R) with a MIC ≥ 16 µg mL-1) | CIP (S/I/R) (E. faecalis; strain S206): R (resistant (R) with a MIC ≥ 16 µg mL-1) | CIP (S/I/R) (E. faecalis; strain S234): R (resistant (R) with a MIC ≥ 16 µg mL-1) | CIP (S/R) (A. baumannii [4]; A. baumannii KB304): R | CIP MIC (A. baumannii [4]; A. baumannii KB304): 24 µg/mL | CIP (S/R) (A. baumannii [4]; A. baumannii KB349): R | CIP MIC (A. baumannii [4]; A. baumannii KB349): > 32 µg/mL | CIP (S/R) (P. aeruginosa [5]; PA1000): R | CIP (S/R) (P. aeruginosa [5]; PA1586): R | CIP (S/I/R) (E. faecium; strain C21190): R (resistant (R) with a MIC ≥ 16 µg mL-1) | CIP (S/I/R) (E. faecium; strain C27282): R (resistant (R) with a MIC ≥ 16 µg mL-1) | CIP (S/I/R) (E. faecium; strain C27569): R (resistant (R) with a MIC ≥ 16 µg mL-1) | CIP (S/I/R) (E. faecium; strain D1): R (resistant (R) with a MIC ≥ 16 µg mL-1) | CIP (S/I/R) (E. faecium; strain S34): R (resistant (R) with a MIC ≥ 16 µg mL-1) | CIP (S/I/R) (E. faecium; strain S51): R (resistant (R) with a MIC ≥ 16 µg mL-1) | CIP (S/I/R) (E. faecium; strain S122): R (resistant (R) with a MIC ≥ 16 µg mL-1) | CIP (S/I/R) (E. faecium; strain S226): R (resistant (R) with a MIC ≥ 16 µg mL-1) | CIP (S/I/R) (E. faecium; strain S235): R (resistant (R) with a MIC ≥ 16 µg mL-1) | CIP (S/I/R) (E. faecium; strain S344): R (resistant (R) with a MIC ≥ 16 µg mL-1) | CIP (S/I/R) (E. faecium; strain S557): R (resistant (R) with a MIC ≥ 16 µg mL-1) | CIP (S/I/R) (E. faecium; strain SL152): R (resistant (R) with a MIC ≥ 16 µg mL-1) | CIP (S/I/R) (E. faecium; strain U63): R (resistant (R) with a MIC ≥ 16 µg mL-1) | CIP (S/I/R) (E. faecium; strain U275): R (resistant (R) with a MIC ≥ 16 µg mL-1) | CIP (S/I/R) (E. faecium; strain U464): R (resistant (R) with a MIC ≥ 16 µg mL-1) | CIP (S/I/R) (E. faecium; strain U503): R (resistant (R) with a MIC ≥ 16 µg mL-1) | CIP (S/I/R) (E. faecium; strain U563): R (resistant (R) with a MIC ≥ 16 µg mL-1)

CCCn1c(=O)cc(C)c2cc3c(C)cc(=O)n4c3c(c21)OC4 [DNM-8]
Sensitivity of VRE clinical isolates (VRE clinical isolates): sensitive | MIC (P. aeruginosa [1]; PA1586 (CIP resistant clinical isolate)): > 32 µg/mL | MIC (P. aeruginosa [1]; Pseudomonas aeruginosa, P. aeruginosa PAO1, read-out: MIC): > 32 µg/mL | MIC (P. aeruginosa [1]; Pseudomonas aeruginosa, read-out: MIC): > 32 µg/mL | MIC (E. coli; Escherichia coli, ATCC25922, E. coli ATCC 25922, gyrA none, parC none): > 32 µg/mL | MIC (A. baumannii [3]): > 32 µg/mL | MIC (A. baumannii [3]; ATCC19606, A. baumannii ATCC 19606, read-out: MIC): > 32 µg/mL | MIC (E. faecalis; [8]): 16 µg/mL (≈ 51.6 µM) | MIC (E. faecalis; [9]): 8 µg/mL (≈ 25.8 µM) | MIC (E. faecalis; C21667, gyrA Ser83Ile, parC Ser80Ile): 1 µg/mL (≈ 3.22 µM) | MIC (E. faecalis; C28535, gyrA Ser83Ile, parC Ser80Ile): 1 µg/mL (≈ 3.22 µM) | MIC (E. faecalis; S206, gyrA Ser83 Arg, parC Ser80Ile): 4 µg/mL (≈ 12.9 µM) | MIC (E. faecalis; S234, gyrA Ser83Ile, parC Ser80Ile Glu84Asp): 0.5 µg/mL (≈ 1.61 µM) | solubility at 1 h (physchem): 68 ± 9 µM (≈ 21.1 µg/mL) | MIC against S. aureus NRS3 [6]: 0.12 µg/mL (≈ 0.387 µM) | MIC (Ent. Spp.): 1 µg/mL (≈ 3.22 µM) | MIC (E. faecium; C21190, gyrA Ser83 Arg, parC Ser80Ile): 8 µg/mL (≈ 25.8 µM) | MIC (E. faecium; C27282, gyrA Ser83 Arg, parC Ser80Arg): 8 µg/mL (≈ 25.8 µM) | MIC (E. faecium; C27569, gyrA Ser83Ile, parC Ser80Ile): 1 µg/mL (≈ 3.22 µM) | MIC (E. faecium; D1, gyrA Ser83Ile, parC Ser80Ile): 0.5 µg/mL (≈ 1.61 µM) | MIC (E. faecium; S34, gyrA Ser83Ile, parC Ser80 Arg): 2 µg/mL (≈ 6.44 µM) | MIC (E. faecium; S51, gyrA Ser83Ile, parC Ser80Ile): 1 µg/mL (≈ 3.22 µM) | MIC (E. faecium; S122, gyrA Ser83Ile, parC Ser80Ile): 1 µg/mL (≈ 3.22 µM) | MIC (E. faecium; S226, gyrA Ser83Ile, parC Ser80Ile): 1 µg/mL (≈ 3.22 µM) | MIC (E. faecium; S235, gyrA Ser83Ile, parC Ser80Ile): 1 µg/mL (≈ 3.22 µM) | MIC (E. faecium; S344, gyrA Ser83Ile, parC Ser80Ile): 1 µg/mL (≈ 3.22 µM) | MIC (E. faecium; S557, gyrA Ser83Ile, parC Ser80Ile): 0.5 µg/mL (≈ 1.61 µM) | MIC (E. faecium; SL152, gyrA Ser83Ile, parC Ser80Ile): 1 µg/mL (≈ 3.22 µM) | MIC (E. faecium; U63, gyrA Ser83 Arg, parC Ser80Ile): 4 µg/mL (≈ 12.9 µM) | MIC (E. faecium; U275, gyrA Ser83Cys Glu87Gly, parC Ser80Ile): 4 µg/mL (≈ 12.9 µM) | MIC (E. faecium; U464, gyrA Ser83 Arg, parC Ser80Ile): 2 µg/mL (≈ 6.44 µM) | MIC (E. faecium; U503, gyrA Ser83 Arg, parC Ser80Ile): 4 µg/mL (≈ 12.9 µM) | MIC (E. faecium; U563, gyrA Ser83 Arg, parC Ser80Ile): 4 µg/mL (≈ 12.9 µM) | MIC against S. aureus 29213 ([7]; ATCC 29213): 16 µg/mL (≈ 51.6 µM) | MIC ([7]; Staphylococcus aureus, ATCC29213, ATCC 29213, read-out: MIC against S. aureus 29213): 16 µg/mL (≈ 51.6 µM) | MIC (MRSA clinical isolates; strain SAU.1118): 8 µg/mL (≈ 25.8 µM) | MIC (MRSA clinical isolates; strain SAU.2996): 2 µg/mL (≈ 6.44 µM) | MIC (MRSA clinical isolates; strain SAU.3017): 4 µg/mL (≈ 12.9 µM) | MIC (MRSA clinical isolates; strain SAU.3021): 0.125 µg/mL (≈ 0.403 µM) | MIC (MRSA clinical isolates; strain SAU.3025): 0.125 µg/mL (≈ 0.403 µM) | MIC (MRSA clinical isolates; strain SAU.3026): 0.25 µg/mL (≈ 0.806 µM) | MIC (MRSA clinical isolates; strain SAU.42): 8 µg/mL (≈ 25.8 µM) | MIC (MRSA clinical isolates; strain SAU.447): 1 µg/mL (≈ 3.22 µM) | MIC (MRSA clinical isolates; strain SAU.555): 0.5 µg/mL (≈ 1.61 µM) | MIC (MRSA clinical isolates; strain SAU.669): 0.125 µg/mL (≈ 0.403 µM) | Sensitivity of MRSA clinical isolates (MRSA clinical isolates; panel of MRSA clinical isolates (n=21)): sensitive
